Measured values from ChEMBL document CHEMBL4765481, “Sialyltransferase Inhibitors Suppress Breast Cancer Metastasis” (J Med Chem, 2021).

Columns and labels:
[1] = target: T1, Sialyltransferase ST3Gal-I (Rattus norvegicus) (UniProt Q6H8N0); test: Inhibition of rat alpha-2,3-O-ST3GALI assessed as reduction in sialylated-product formation at 1 mM using p-nitrophenyl T-antigen and CMP-NeuSAc incubated for 15 mins by reverse-phase HPLC analysis relative to control
T1 sequence (whole entry): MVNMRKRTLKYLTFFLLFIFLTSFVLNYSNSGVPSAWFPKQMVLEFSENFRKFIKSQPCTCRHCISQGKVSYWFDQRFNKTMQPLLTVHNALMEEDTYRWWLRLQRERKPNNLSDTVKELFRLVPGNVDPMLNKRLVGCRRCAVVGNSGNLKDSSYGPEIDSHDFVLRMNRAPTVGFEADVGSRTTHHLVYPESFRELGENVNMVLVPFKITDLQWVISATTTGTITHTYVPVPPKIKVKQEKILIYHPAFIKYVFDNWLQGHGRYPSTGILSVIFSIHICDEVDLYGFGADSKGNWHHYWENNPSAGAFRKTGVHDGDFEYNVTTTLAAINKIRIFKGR

[2] = Selectivity ratio of IC50 for of inhibition of rat alpha-2,3-O-ST3GALI to IC50 for inhibition of human alpha-2,6-ST6GAL1
MDA-MB-231 [3] = test: Inhibition of Sialyltransferase in human MDA-MB-231 cells assessed as reduction in FAK Tyr397 phosphorylation level at 10 to 20 uM incubated for 48 hrs by immunoblot analysis; format: cell-based; conditions: dose 10-20 µM
MDA-MB-231 [4] = test: Inhibition of Sialyltransferase in human MDA-MB-231 cells assessed as decrease p-talin-1 association with integrins beta1 and beta 3 after 48 hrs by immunofluorescence and coimmunoprecipitation assay; format: cell-based
[5] = target: T1, Sialyltransferase ST3Gal-I (Rattus norvegicus); test: Inhibition of rat alpha-2,3-O-ST3GALI assessed as reduction in sialylated-product formation at 500 uM using p-nitrophenyl T-antigen and CMP-NeuSAc incubated for 15 mins by reverse-phase HPLC analysis relative to control
[6] = Apparent permeability at pH 7.4 by PAMPA
[7] = Toxicity in human MDA-MB-231 cells assessed as cell survival at >60 uM relative to control; format: cell-based; conditions: read-out: Survival
MDA-MB-231 [8] = test: Inhibition of Sialyltransferase in human MDA-MB-231 cells assessed as reduction in FAK Tyr576/577 phosphorylation level at 10 to 20 uM incubated for 48 hrs by immunoblot analysis; format: cell-based; conditions: dose 10-20 µM
MDA-MB-231 [9] = test: Inhibition of Sialyltransferase in human MDA-MB-231 cells assessed as reduction in integrin isoforms expression (alphaV/alpha5/beta1/beta3/beta4/beta5) at 10 to 20 uM incubated for 48 hrs by immunoblot analysis; format: cell-based; conditions: dose 10-20 µM

For `C[C@H](CCC(=O)OCCOCCOCCN=[N+]=[N-])[C@H]1CC[C@H]2[C@@H]3CC[C@@H]4C[C@H](OC(=O)[C@H](CC(=O)O)Nc5ccc([N+](=O)[O-])c6nonc56)CC[C@]4(C)[C@H]3CC[C@]12C`, the inhibition [1] was 60%, the Ratio IC50 [2] was over 139 and the inhibition (MDA-MB-231 [3]) was “Dose-dependent effect”. The inhibition (MDA-MB-231 [4]) was “Dose-dependent effect”, the inhibition [5] was 0% and the Papp [6] was 36 nm/s. For the same compound, the viability [7] was over 90%, the inhibition (MDA-MB-231 [8]) was “Dose-dependent effect” and the inhibition (MDA-MB-231 [9]) was “Dose-dependent effect”.
